Article PMC4160187 (2014)

Columns and labels:
Assay in all cases: UV-vis Soret titration (A404)
[1] = system: r(G4C2)4 (RNA, G4) GGGGCCGGGGCCGGGGCCGGGGC; conditions: 20 mM K+; 40 mM HEPES pH 8.0, 1% DMF, 0.05% Triton X-100, 20°C; heme 0.5 µM; text also ~3 µM
[2] = system: r(C4G2)4 (RNA, other) GGCCCCGGCCCCGGCCCCGGCCCC; conditions: 20 mM K+; 40 mM HEPES pH 8.0, 1% DMF, 0.05% Triton X-100, 20°C; heme 0.5 µM; up to 20 µM RNA
[3] = system: CatG4 (DNA, G4) TGGGTAGGGCGGGTTGGGAAA; conditions: 20 mM K+; 40 mM HEPES pH 8.0, 1% DMF, 0.05% Triton X-100, 20°C; heme 0.5 µM
[4] = system: d(G4C2)4 (DNA, G4) GGGGCCGGGGCCGGGGCCGGGGC; conditions: 20 mM K+; 40 mM HEPES pH 8.0, 1% DMF, 0.05% Triton X-100, 20°C; heme 0.5 µM; weaker than r(G4C2)4

C=CC1=C(C)C2=Cc3c(C=C)c(C)c4[n]3[Fe]([Cl])[n]3c(c(C)c(CCC(=O)O)c3=CC3=NC(=C4)C(C)=C3CCC(=O)O)=CC1=N2
KD [1]: 3.1 µM | binding [2]: no | Kd [3]: < 0.5 µM | binding [4]: yes
